In brackets after ≈: the same amount, converted by molar mass.
Legend:
Candida tropicalis = assay: Minimum inhibitory concentration against Candida tropicalis ATCC750 evaluated by in vitro agar diffusion and microbroth dilution assay; format: functional
Aspergillus fumigatus = assay: Minimum inhibitory concentration against Aspergillus fumigatus LSI-11 evaluated by in vitro agar diffusion and microbroth dilution assay; format: functional
Candida albicans [1] = assay: Minimum inhibitory concentration against Candida albicans V-01-191 evaluated by in vitro agar diffusion and microbroth dilution assay; format: functional
Candida [2] = assay: Minimum inhibitory concentration against Candida krusei 1766-1 evaluated by in vitro agar diffusion and micro-broth dilution assay; format: functional, Candida kruisii
Candida parapsilosis = assay: Minimum inhibitory concentration against Candida parapsilosis ATCC 22019 evaluated by in vitro agar diffusion and micro-broth dilution assay; format: functional; conditions: Lodderomyces parapsilosis
Candida [3] = assay: Minimum inhibitory concentration against Candida krusei ATCC 6528 evaluated by in vitro agar diffusion and micro-broth dilution assay; format: functional, Candida kruisii
Nakaseomyces glabratus = assay: Minimum inhibitory concentration against Candida glabrata ATCC 90030 evaluated by in vitro agar diffusion and microbroth dilution assay; format: functional
Candida albicans [4] = assay: Minimum inhibitory concentration against Candida albicans A261 evaluated by in vitro agar diffusion and micro-broth dilution assay; format: functional

Compound | MIC (Candida tropicalis) | MIC (Aspergillus fumigatus) | MIC (Candida albicans [1]) | MIC (Candida [2]) | MIC (Candida parapsilosis) | MIC (Candida [3]) | MIC (Nakaseomyces glabratus) | MIC (Candida albicans [4])
Cn1c(-c2cc(F)c(NC(=N)N)cc2F)ccc1-c1cc(F)c(NC(=N)N)cc1F | > 16 µg/mL | > 16 µg/mL | > 16 µg/mL | > 16 µg/mL | > 16 µg/mL | > 16 µg/mL | > 16 µg/mL | > 16 µg/mL
COc1cc(NC(=N)N)ccc1-c1ccc(-c2ccc(NC(=N)N)cc2OC)n1C | 16 µg/mL (≈ 39.3 µM) | 16 µg/mL (≈ 39.3 µM) | 16 µg/mL (≈ 39.3 µM) | 16 µg/mL (≈ 39.3 µM) | 16 µg/mL (≈ 39.3 µM) | 16 µg/mL (≈ 39.3 µM) | 16 µg/mL (≈ 39.3 µM) | 16 µg/mL (≈ 39.3 µM)
Cn1c(-c2ccc(N=C(N)N)c(C(F)(F)F)c2)ccc1-c1ccc(N=C(N)N)c(C(F)(F)F)c1 | 4 µg/mL (≈ 8.27 µM) | 16 µg/mL (≈ 33.1 µM) | 16 µg/mL (≈ 33.1 µM) | 16 µg/mL (≈ 33.1 µM) | 16 µg/mL (≈ 33.1 µM) | 16 µg/mL (≈ 33.1 µM) | 16 µg/mL (≈ 33.1 µM) | 16 µg/mL (≈ 33.1 µM)
Cn1c(-c2ccc(NC(=N)N)cc2)ccc1-c1ccc(NC(=N)N)cc1 | > 16 µg/mL | > 16 µg/mL | > 16 µg/mL | > 16 µg/mL | > 16 µg/mL | > 16 µg/mL | > 16 µg/mL | > 16 µg/mL
Cc1cc(NC(=N)N)ccc1-c1ccc(-c2ccc(NC(=N)N)cc2C)n1C | 1 µg/mL (≈ 2.66 µM) | 16 µg/mL (≈ 42.6 µM) | 2 µg/mL (≈ 5.33 µM) | 8 µg/mL (≈ 21.3 µM) | 2 µg/mL (≈ 5.33 µM) | 4 µg/mL (≈ 10.7 µM) | 2 µg/mL (≈ 5.33 µM) | 2 µg/mL (≈ 5.33 µM)
Cn1c(-c2ccc(NC(=N)N)cc2Cl)ccc1-c1ccc(NC(=N)N)cc1Cl | 4 µg/mL (≈ 9.61 µM) | > 16 µg/mL | 8 µg/mL (≈ 19.2 µM) | 16 µg/mL (≈ 38.4 µM) | 16 µg/mL (≈ 38.4 µM) | 16 µg/mL (≈ 38.4 µM) | 16 µg/mL (≈ 38.4 µM) | 8 µg/mL (≈ 19.2 µM)
OC(Cn1cncn1)(Cn1cncn1)c1ccc(F)cc1F [FLUCONAZOLE] | 8 µg/mL (≈ 26.1 µM) | ≥ 64 µg/mL | 6 µg/mL (≈ 19.6 µM) | 32 µg/mL (≈ 104 µM) | 8 µg/mL (≈ 26.1 µM) | > 8 µg/mL | > 8 µg/mL | 0.25 µg/mL (≈ 0.816 µM)
CCC(C)n1ncn(-c2ccc(N3CCN(c4ccc(OC[C@H]5CO[C@](Cn6cncn6)(c6ccc(Cl)cc6Cl)O5)cc4)CC3)cc2)c1=O (some centres undefined) [ITRACONAZOLE] | 0.12 µg/mL (≈ 0.17 µM) | 0.12 µg/mL (≈ 0.17 µM) | 0.25 µg/mL (≈ 0.354 µM) | < 0.03 µg/mL | 0.25 µg/mL (≈ 0.354 µM) | 0.25 µg/mL (≈ 0.354 µM) | 0.25 µg/mL (≈ 0.354 µM) | < 0.03 µg/mL
